Data reported in patent US4760053A, “Combination therapy for selected sex steroid dependent cancers” (priority 1985, dated 1988).

Key:
[1] = test system: MCF7 human breast tumor cells; details: inhibitory activity antagonized by estradiol; cited from earlier work
[2] = test system: serum testosterone; assay: LHRH agonist-induced serum testosterone in the dog; format: in vivo; details: dogs; for prevention of the rise in serum testosterone during the first days of treatment with the peptide: given per os three times daily together with 50 μg LHRH-A daily (aminoglutethimide group plus hydrocortisone)
Procedure: Eighteen mongrel dogs weighing between 20-30 kg were randomly divided into three groups. The animals were housed one per cage and fed Purina Dog Chow and tap water ad libitum.
The animals of group 1 were injected daily (at 0700 h) with 50 μg of the LHRH agonist [D-Trp^6, des-Gly-NH2^10 ]LHRH ethylamide (LHRH-A). In group 2, the animals were also injected daily with 50 μg of LHRH-A and took in addition 200 mg of ketoconazole per os at 0700 h, 1500 h and 2300 h. The animals of group 3 received daily 50 μg of LHRH-A and 125 mg of aminoglutethimide per os at 0700 h, 1500 h, 2300 h plus 10 mg of hydrocortisone twice daily.
Blood samples were collected at 0700 h, 0900 h, 1100 h and 1500 h one day before treatment and every day during the treatment. Plasma was extracted with diethyl ether and testosterone was separated on LH-20 columns before RIA measurements.

[3] = test system: advanced breast cancer; details: cited from earlier work
[4] = test system: testosterone levels; details: rodents, in combination with chronic administration of Leuprolide; cited from earlier work

CC[C@H](c1cccc(O)c1)[C@@H](CC)c1cccc(O)c1 [meso-3,4-bis(3'-hydroxyphenyl)hexane]
inhibition of MCF7 human breast tumor cells [1]: inhibits

CCNC(=O)[C@@H]1CCCN1C(=O)[C@H](CCCNC(=N)N)NC(=O)[C@H](CC(C)C)NC(=O)[C@@H](Cc1c[nH]c2ccccc12)NC(=O)[C@H](Cc1ccc(O)cc1)NC(=O)[C@H](CO)NC(=O)[C@H](Cc1c[nH]c2ccccc12)NC(=O)[C@H](Cc1c[nH]cn1)NC(=O)[C@@H]1CCC(=O)N1 [[D-Trp^6 des-Gly-NH2^10]LHRH ethylamide, [D-Trp^6, des-Gly-NH2^10]LHRH ethylamide]
level of serum testosterone on day 19 ([2]; daily injection of 50 μg, day 19): near-castration levels | increase in serum testosterone ([2]; daily injection of 50 μg, one to six days after start of treatment): approximately 500 % above control

CC/C(=C(\c1ccccc1)c1ccc(OCCN(C)C)cc1)c1ccccc1 [Tamoxifen, (Z)-2-[4-(1,2-diphenyl-1-butenyl)phenoxy]-N,N-dimethylethanamine]
remission of advanced breast cancer, share of patients treated ([3]; Tamoxifen alone): about 30% | objective remission of breast cancer ([3]; combined use with the LH-RH agonist Buserelin): 35%

CCC1(c2ccc(N)cc2)CCC(=O)NC1=O (centres unmarked) [aminoglutethimide, 3-(4-aminophenyl)-3-ethyl-2,6-piperidinedione]
prevention of the rise in serum testosterone during the first days of treatment with the peptide [2]: almost completely prevented

CC(=O)N1CCN(c2ccc(OCC3COC(Cn4ccnc4)(c4ccc(Cl)cc4Cl)O3)cc2)CC1 (centres unmarked) [ketoconazole]
basal and Leuprolide stimulated testosterone levels [4]: decreased | prevention of the rise in serum testosterone during the first days of treatment with the peptide [2]: almost completely prevented
